Test results from US8461328B2, “Tricyclic heterocyclic compounds, compositions and methods of use thereof” (Genentech, Inc., priority 2010, dated 2013).

Experiments:
Type in all cases: biochemical
JAK3 = molecular target: T1, JAK3 (Homo sapiens, UniProt P52333); assay: JAK3 inhibition (Table 4); details: read-out: JAK3 Ki
T1 construct: made in house; host or cells: SF9 insect cells (baculovirus)

JAK1 = molecular target: T2, JAK1 (Homo sapiens, UniProt P23458); assay: JAK1 inhibition (Table 4); details: read-out: JAK1 Ki
T2 construct: made in house; host or cells: SF9 insect cells (baculovirus)
T2 sequence (P23458 852-1154): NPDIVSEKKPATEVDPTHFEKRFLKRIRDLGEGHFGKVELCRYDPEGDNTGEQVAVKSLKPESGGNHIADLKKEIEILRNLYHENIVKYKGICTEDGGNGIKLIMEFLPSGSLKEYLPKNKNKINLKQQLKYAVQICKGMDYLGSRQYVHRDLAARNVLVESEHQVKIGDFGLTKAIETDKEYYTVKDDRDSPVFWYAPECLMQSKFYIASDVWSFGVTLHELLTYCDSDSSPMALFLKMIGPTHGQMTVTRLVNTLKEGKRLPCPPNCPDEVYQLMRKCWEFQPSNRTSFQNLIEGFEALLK

TYK2 = molecular target: T3, TYK2 (Homo sapiens, UniProt P29597); assay: TYK2 inhibition (Table 4)
T3 construct: made in house; host or cells: SF9 insect cells (baculovirus)
T3 sequence (P29597 873-1187): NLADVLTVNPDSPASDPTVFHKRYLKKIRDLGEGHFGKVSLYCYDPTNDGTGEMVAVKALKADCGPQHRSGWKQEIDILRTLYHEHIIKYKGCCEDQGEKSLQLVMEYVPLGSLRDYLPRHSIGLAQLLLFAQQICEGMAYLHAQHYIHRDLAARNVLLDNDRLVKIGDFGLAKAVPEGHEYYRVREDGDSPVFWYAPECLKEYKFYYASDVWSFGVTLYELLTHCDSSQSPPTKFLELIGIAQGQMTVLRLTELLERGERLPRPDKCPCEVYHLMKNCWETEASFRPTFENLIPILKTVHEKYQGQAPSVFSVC

JAK2 = molecular target: T4, JAK2 (Homo sapiens, UniProt O60674); assay: JAK2 inhibition (Table 4); details: read-out: JAK2 Ki
T4 construct: made in house; host or cells: SF9 insect cells (baculovirus)
T4 sequence (O60674 812-1132): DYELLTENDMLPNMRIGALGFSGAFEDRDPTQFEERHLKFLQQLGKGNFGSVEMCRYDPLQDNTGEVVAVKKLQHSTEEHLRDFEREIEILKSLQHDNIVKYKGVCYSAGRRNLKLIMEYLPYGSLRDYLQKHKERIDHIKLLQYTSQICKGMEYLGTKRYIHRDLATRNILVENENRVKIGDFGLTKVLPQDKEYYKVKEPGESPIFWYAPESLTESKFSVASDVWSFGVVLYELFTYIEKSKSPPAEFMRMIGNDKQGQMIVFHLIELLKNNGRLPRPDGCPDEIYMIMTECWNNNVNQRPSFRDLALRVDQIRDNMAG

T1 sequence (P52333 783-1124): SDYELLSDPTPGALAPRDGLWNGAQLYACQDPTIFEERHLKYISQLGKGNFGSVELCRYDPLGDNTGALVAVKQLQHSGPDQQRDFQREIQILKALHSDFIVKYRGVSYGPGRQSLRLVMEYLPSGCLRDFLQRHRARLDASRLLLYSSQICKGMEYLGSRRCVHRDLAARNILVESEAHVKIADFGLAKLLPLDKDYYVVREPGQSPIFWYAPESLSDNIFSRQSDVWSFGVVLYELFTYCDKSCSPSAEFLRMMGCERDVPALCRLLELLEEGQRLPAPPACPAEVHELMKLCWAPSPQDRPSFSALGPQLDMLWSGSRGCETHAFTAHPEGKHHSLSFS

Ki (JAK3)	Ki (JAK1)	Ki (TYK2)	Ki (JAK2)	Structure (SMILES)
0.299 µM	0.0213 µM	0.536 µM	0.0538 µM	COCCN(C)C(=O)NC1CCC(n2cnc3cnc4[nH]ccc4c32)C1 (racemic) [Example 739, 1-(2-Methoxy-ethyl)-1-methyl-3-[3-(6H-1,3,5,6-tetraaza-as-indacen-1-yl)-cyclopentyl]-urea]
0.0742 µM	0.0158 µM	0.109 µM	0.0412 µM	OCCOc1nc2cnc3[nH]ccc3c2n1C1CCCOC1 (racemic) [Example 780, 2-[1-(Tetrahydro-pyran-3-yl)-1,6-dihydro-1,3,5,6-tetraaza-as-indacen-2-yloxy]-ethanol]
0.0136 µM	0.00297 µM	0.172 µM	0.0252 µM	CCN1CCC(n2c(CCNS(C)(=O)=O)nc3cnc4[nH]ccc4c32)C(F)(F)C1 (racemic) [Example 804, N-{2-[1-(1-Ethyl-3,3-difluoro-piperidin-4-yl)-1,6-dihydro-1,3,5,6-tetraaza-as-indacen-2-yl]-ethyl}-methanesulfonamide]
0.561 µM	0.0202 µM	0.806 µM	0.296 µM	COCC(=O)NCCc1nc2cnc3[nH]ccc3c2n1C1CCCOC1 (racemic) [Example 860, 2-Methoxy-N-{2-[1-(tetrahydro-pyran-3-yl)-1,6-dihydro-1,3,5,6-tetraaza-as-indacen-2-yl]-ethyl}-acetamide]
0.00869 µM	0.00089 µM	0.0101 µM	0.0179 µM	O=C(Cc1nc2cnc3[nH]ccc3c2n1C1CC2CCC1C2)N1CCC(O)CC1 (racemic) [Example 869, 2-(1-Bicyclo[2.2.1]hept-2-yl-1,6-dihydro-1,3,5,6-tetraaza-as-indacen-2-yl)-1-(4-hydroxy-piperidin-1-yl)-ethanone]
0.0955 µM	0.035 µM	0.0862 µM	0.29 µM	OC(c1nc2cnc3[nH]ccc3c2n1C1CCCCC1)C1CCOCC1 (racemic) [Example 875, (1-Cyclohexyl-1,6-dihydro-1,3,5,6-tetraaza-as-indacen-2-yl)-(tetrahydro-pyran-4-yl)-methanol]
0.0255 µM	0.00096 µM	0.00891 µM	0.0313 µM	OC(c1nc2cnc3[nH]ccc3c2n1C1CCCCC1)C1CC1 (racemic) [Example 940, (1-Cyclohexyl-1,6-dihydro-1,3,5,6-tetraaza-as-indacen-2-yl)-cyclopropyl-methanol]
0.00597 µM	0.0018 µM	0.0147 µM	0.0106 µM	CCN1CCC(n2c(CO)nc3cnc4[nH]ccc4c32)C(F)(F)C1 (racemic) [Example 941, [1-(1-Ethyl-3,3-difluoro-piperidin-4-yl)-1,6-dihydro-1,3,5,6-tetraaza-as-indacen-2-yl]-methanol]
0.0941 µM	0.00509 µM	0.0305 µM	0.2 µM	O=C(O)C1CC1C(O)c1nc2cnc3[nH]ccc3c2n1C1CCCCC1 (racemic) [Example 942, 2-[(1-Cyclohexyl-1,6-dihydro-1,3,5,6-tetraaza-as-indacen-2-yl)-hydroxy-methyl]-cyclopropanecarboxylic acid]
0.0203 µM	0.00319 µM	0.0325 µM	0.035 µM	CS(=O)(=O)NCc1nc2cnc3[nH]ccc3c2n1C1CCNCC1(F)F (racemic) [Example 945, N-[1-(3,3-Difluoro-piperidin-4-yl)-1,6-dihydro-1,3,5,6-tetraaza-as-indacen-2-ylmethyl]-methanesulfonamide]
0.0121 µM	0.00143 µM	0.156 µM	0.00965 µM	CS(=O)(=O)NCc1nc2cnc3[nH]ccc3c2n1C1CCN(Cc2ccccc2)CC1(F)F (racemic) [Example 946, N-[1-(1-Benzyl-3,3-difluoro-piperidin-4-yl)-1,6-dihydro-1,3,5,6-tetraaza-as-indacen-2-ylmethyl]-methanesulfonamide]
0.00214 µM	0.00042 µM	0.00563 µM	0.00129 µM	OCc1nc2cnc3[nH]ccc3c2n1C1CCN(Cc2ccccc2)CC1(F)F (racemic) [Example 947, [1-(1-Benzyl-3,3-difluoro-piperidin-4-yl)-1,6-dihydro-1,3,5,6-tetraaza-as-indacen-2-yl]-methanol]
0.00595 µM	0.00123 µM	0.00732 µM	0.0136 µM	OCc1nc2cnc3[nH]ccc3c2n1C1CCNCC1(F)F (racemic) [Example 948, [1-(3,3-Difluoro-piperidin-4-yl)-1,6-dihydro-1,3,5,6-tetraaza-as-indacen-2-yl]-methanol]
3.48 µM	0.0457 µM	1.83 µM	0.455 µM	CN1CCCCCC1C(=O)N1CCC(n2cnc3cnc4[nH]ccc4c32)CC1 (racemic) [Example 953, (1-Methyl-azepan-2-yl)-[4-(6H-1,3,5,6-tetraaza-as-indacen-1-yl)-piperidin-1-yl]-methanone]
0.41 µM	0.0553 µM	0.282 µM	0.0898 µM	Cn1cc2c(n1)CCC(n1cnc3cnc4[nH]ccc4c31)C2 (racemic) [Example 956, 1-(2-Methyl-4,5,6,7-tetrahydro-2H-indazol-5-yl)-1,6-dihydro-1,3,5,6-tetraaza-as-indacene]
0.236 µM	0.0304 µM	0.224 µM	0.208 µM	NC(=O)Cc1nc2cnc3[nH]ccc3c2n1C1CCCOC1 (racemic) [Example 960, 2-[1-(Tetrahydro-pyran-3-yl)-1,6-dihydro-1,3,5,6-tetraaza-as-indacen-2-yl]-acetamide]
0.316 µM	0.0456 µM	0.438 µM	0.333 µM	CNC(=O)Cc1nc2cnc3[nH]ccc3c2n1C1CCCOC1 (racemic) [Example 961, N-Methyl-2-[1-(tetrahydro-pyran-3-yl)-1,6-dihydro-1,3,5,6-tetraaza-as-indacen-2-yl]-acetamide]
0.177 µM	0.0358 µM	0.399 µM	0.208 µM	CCNC(=O)Cc1nc2cnc3[nH]ccc3c2n1C1CCCOC1 (racemic) [Example 962, N-Ethyl-2-[1-(tetrahydro-pyran-3-yl)-1,6-dihydro-1,3,5,6-tetraaza-as-indacen-2-yl]-acetamide]
0.119 µM	0.0432 µM	0.373 µM	0.19 µM	CC(C)NC(=O)Cc1nc2cnc3[nH]ccc3c2n1C1CCCOC1 (racemic) [Example 963, N-Isopropyl-2-[1-(tetrahydro-pyran-3-yl)-1,6-dihydro-1,3,5,6-tetraaza-as-indacen-2-yl]-acetamide]
0.107 µM	0.0316 µM	0.306 µM	0.16 µM	O=C(Cc1nc2cnc3[nH]ccc3c2n1C1CCCOC1)NC1CCC1 (racemic) [Example 965, N-Cyclobutyl-2-[1-(tetrahydro-pyran-3-yl)-1,6-dihydro-1,3,5,6-tetraaza-as-indacen-2-yl]-acetamide]
0.196 µM	0.038 µM	0.478 µM	0.256 µM	CC(C)CNC(=O)Cc1nc2cnc3[nH]ccc3c2n1C1CCCOC1 (racemic) [Example 966, N-Isobutyl-2-[1-(tetrahydro-pyran-3-yl)-1,6-dihydro-1,3,5,6-tetraaza-as-indacen-2-yl]-acetamide]
0.484 µM	0.131 µM	1.06 µM	0.776 µM	O=C(Cc1nc2cnc3[nH]ccc3c2n1C1CCCOC1)N1CCC1 (racemic) [Example 967, 1-Azetidin-1-yl-2-[1-(tetrahydro-pyran-3-yl)-1,6-dihydro-1,3,5,6-tetraaza-as-indacen-2-yl]-ethanone]
0.361 µM	0.131 µM	1.17 µM	0.891 µM	O=C(Cc1nc2cnc3[nH]ccc3c2n1C1CCCOC1)N1CCCC1 (racemic) [Example 968, 1-Pyrrolidin-1-yl-2-[1-(tetrahydro-pyran-3-yl)-1,6-dihydro-1,3,5,6-tetraaza-as-indacen-2-yl]-ethanone]
0.511 µM	0.171 µM	1.14 µM	1.09 µM	CN(CCO)C(=O)Cc1nc2cnc3[nH]ccc3c2n1C1CCCOC1 (racemic) [Example 969, N-(2-Hydroxy-ethyl)-N-methyl-2-[1-(tetrahydro-pyran-3-yl)-1,6-dihydro-1,3,5,6-tetraaza-as-indacen-2-yl]-acetamide]
0.206 µM	0.0343 µM	0.245 µM	0.124 µM	CN(C)C(=O)CNC(=O)Cc1nc2cnc3[nH]ccc3c2n1C1CCCOC1 (racemic) [Example 970, N-Dimethylcarbamoylmethyl-2-[1-(tetrahydro-pyran-3-yl)-1,6-dihydro-1,3,5,6-tetraaza-as-indacen-2-yl]-acetamide]
0.352 µM	0.114 µM	0.799 µM	0.564 µM	O=C(Cc1nc2cnc3[nH]ccc3c2n1C1CCCOC1)N1CC(F)(F)C1 (racemic) [Example 971, 1-(3,3-Difluoro-azetidin-1-yl)-2-[1-(tetrahydro-pyran-3-yl)-1,6-dihydro-1,3,5,6-tetraaza-as-indacen-2-yl]-ethanone]
0.0891 µM	0.0276 µM	0.194 µM	0.113 µM	O=C(Cc1nc2cnc3[nH]ccc3c2n1C1CCCOC1)NC1CCC(F)(F)CC1 (racemic) [Example 972, N-(4,4-Difluoro-cyclohexyl)-2-[1-(tetrahydro-pyran-3-yl)-1,6-dihydro-1,3,5,6-tetraaza-as-indacen-2-yl]-acetamide]
